Test results taken from the NIST ThermoML archive (doi:10.1021/je049796y).

Assay: xn = mol fraction of the nth substance listed
Conditions: 283.65 K, Vibrating tube method

C=C [ethene] + CCO
Conditions | mass density [kg/m3]
Liquid mixture 1, x1 = 0.685 | 529.3
Liquid mixture 1, x1 = 0.712 | 503.5
Liquid mixture 2, x1 = 0.862 | 410
Liquid mixture 2, x1 = 0.892 | 385.6

Liquid
Conditions | mass density [kg/m3]
x1 = 0.101 | 767.8
x1 = 0.178 | 741.9
x1 = 0.268 | 708.7
x1 = 0.408 | 661.3
x1 = 0.512 | 614.1
x1 = 0.614 | 564.2
x1 = 0.94 | 347.3
x1 = 0.989 | 295.1
